Assay results as given in ChEMBL document CHEMBL4765241, “Identification and Preclinical Pharmacology of ((1 R,3 S)-1-Amino-3-(( S)-6-(2-methoxyphenethyl)-5,6,7,8-tetrahydronaphthalen-2-yl)cyclopentyl)methanol (BMS-986166): A Differentiated Sphingosine-1-phosphate Receptor 1 (S1P) Modulator Advanced into Clinical Trials” (J Med Chem, 2019).
Blank lines part the entries; values can stand above or below the compound they belong to. The source made the active and inactive calls. No cut-off for these calls is given here.

Experiments:
[1] = Pulmonary toxicity in Lewis rat assessed as elevation of BAL protein level at 1 mg/kg by advia1800 chemistry analyzer; format: organism-based; conditions: in vivo
[2] = Cardiotoxicity in human iPSC derived cardiomyocytes assessed as reduction in beating rate at 1 nM measured over 2 hrs by multi-electrode array relative to control; format: toxicity, cell-based; parameters: scale not given: the % may be the effect or the level left; conditions: stem cell-derived cardiomyocyte, 0.001 µM
[3] = Cardiotoxicity in human iPSC derived cardiomyocytes assessed as reduction in beating rate at 10 nM measured over 2 hrs by multi-electrode array relative to control; format: toxicity, cell-based; parameters: scale not given: the % may be the effect or the level left; conditions: stem cell-derived cardiomyocyte, 0.01 µM
[4] = biological target: Sphingosine 1-phosphate receptor 3 (Homo sapiens, UniProt Q99500); experiment: Agonist activity at human recombinant S1P3 expressed in CHO cell membranes assessed as stimulation of [35S]-GTPgammaS binding measured after 45 mins by liquid scintillation counting assay; parameters: species or system Cell membrane
[5] = biological target: T1, Sphingosine 1-phosphate receptor 4 (Homo sapiens, UniProt O95977); experiment: Agonist activity at human recombinant S1P4 expressed in CHO cell membranes assessed as stimulation of [35S]-GTPgammaS binding measured after 45 mins by liquid scintillation counting assay; format: functional, Cell membrane
T1 sequence (O95977 whole entry): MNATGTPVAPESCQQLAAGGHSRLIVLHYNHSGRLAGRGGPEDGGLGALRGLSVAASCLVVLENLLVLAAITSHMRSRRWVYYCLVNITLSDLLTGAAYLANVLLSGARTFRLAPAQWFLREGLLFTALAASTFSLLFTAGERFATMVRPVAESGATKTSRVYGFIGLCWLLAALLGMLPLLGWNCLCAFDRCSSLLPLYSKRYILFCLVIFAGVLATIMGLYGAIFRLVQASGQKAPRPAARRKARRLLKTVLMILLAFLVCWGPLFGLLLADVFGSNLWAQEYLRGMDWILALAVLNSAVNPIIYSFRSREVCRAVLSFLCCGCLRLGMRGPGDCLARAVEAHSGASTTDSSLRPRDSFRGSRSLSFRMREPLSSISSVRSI

[6] = Antimigratory activity against human T cells assessed as inhibition of S1P-induced T cell migration preincubated for 10 mins followed by addition of S1P measured after 120 mins by calcein-AM dye based fluorescence analysis; format: functional
[7] = Tmax in Sprague-Dawley rat at 1 mg/kg, po or 1 mg/kg, iv; format: ADME, organism-based; conditions: in vivo
[8] = Tmax in Beagle dog at 0.3 mg/kg, po or 1 mg/kg, iv; format: ADME, organism-based, Canis lupus familiaris; conditions: in vivo
[9] = Tmax in cynomolgus monkey at 1 mg/kg, po or 1 mg/kg, iv; format: ADME, organism-based, Macaca fascicularis; conditions: in vivo
Cerebellar cortex [10] = experiment: Induction of remyelination in lysophosphatidylcholine-induced demyelination in wild-type CD1 mouse organotypic cerebellar slice at 0.01 to 10 nM incubated for 7 days by immunohistochemistry based three-dimensional brain cell culture assay; format: functional, tissue-based; conditions: dose 0.01-10 nM, time 7.0 day
Cerebellar cortex [11] = experiment: Induction of remyelination in lysophosphatidylcholine-induced demyelination in wild-type CD1 mouse organotypic cerebellar slice assessed as myelination index at 0.01 to 10 nM incubated for 7 days by immunohistochemistry based three-dimensional brain cell culture assay (reference value: 50%); format: functional; conditions: dose 0.01-10 nM, time 7 day
Mus musculus [12] = experiment: Reduction in circulating lymphocytes in Balb/c mouse blood at 0.5 mg/kg, po measured at 4 hrs by hematology analyzer based analysis; format: functional; parameters: scale not given: the % may be the effect or the level left
Mus musculus [13] = experiment: Reduction in circulating lymphocytes in Balb/c mouse blood at 30 mg/kg, po measured at 4 hrs by hematology analyzer based analysis; format: functional; parameters: scale not given: the % may be the effect or the level left
Mus musculus [14] = experiment: Reduction in circulating lymphocytes in Balb/c mouse blood at 0.5 mg/kg, po measured at 24 hrs by hematology analyzer based analysis; format: functional; parameters: scale not given: the % may be the effect or the level left
Mus musculus [15] = experiment: Reduction in circulating lymphocytes in Balb/c mouse blood at 30 mg/kg, po measured at 24 hrs by hematology analyzer based analysis; format: functional; parameters: scale not given: the % may be the effect or the level left
[16] = Drug metabolism in Balb/c mouse blood assessed as concentration of parent compound at 0.5 mg/kg, po measured at 4 hrs by LC-MS/MS analysis; format: ADME, organism-based; conditions: in vivo, BLD = below limit of detection
[17] = Drug metabolism in Balb/c mouse blood assessed as concentration of parent compound at 30 mg/kg, po measured at 4 hrs by LC-MS/MS analysis; format: ADME, organism-based; conditions: Balb/c, blood, read-out: Ct
[18] = Drug metabolism in Balb/c mouse blood assessed as concentration of phosphate ester metabolite at 0.5 mg/kg, po measured at 4 hrs by LC-MS/MS analysis; format: ADME, organism-based; conditions: in vivo, BLD = below limit of detection
[19] = Drug metabolism in Balb/c mouse blood assessed as phosphate ester metabolite formation at 30 mg/kg, po measured at 4 hrs by LC-MS/MS analysis; format: ADME, organism-based; conditions: in vivo
[20] = Drug metabolism in Balb/c mouse blood assessed as concentration of parent compound at 0.5 mg/kg, po measured at 24 hrs by LC-MS/MS analysis; format: ADME, organism-based; conditions: read-out: Ct
[21] = Drug metabolism in Balb/c mouse blood assessed as concentration of parent compound at 30 mg/kg, po measured at 24 hrs by LC-MS/MS analysis; format: ADME, organism-based; conditions: Balb/c, blood, read-out: Ct
[22] = Drug metabolism in Balb/c mouse blood assessed as concentration of phosphate ester metabolite formation at 0.5 mg/kg, po measured at 24 hrs by LC-MS/MS analysis; format: ADME, organism-based; conditions: in vivo
[23] = Drug metabolism in Balb/c mouse blood assessed as concentration of phosphate ester metabolite formation at 30 mg/kg, po measured at 24 hrs by LC-MS/MS analysis; format: ADME, organism-based; conditions: in vivo
[24] = Ratio of drug metabolism in Balb/c mouse blood assessed as phosphate ester metabolite to parent drug at 0.5 mg/kg, po measured at 24 hrs by LC-MS/MS analysis; format: ADME, organism-based; conditions: in vivo
[25] = Ratio of drug metabolism in Balb/c mouse blood assessed as phosphate ester metabolite to parent drug at 30 mg/kg, po measured at 24 hrs by LC-MS/MS analysis; format: ADME, organism-based; conditions: in vivo
Rattus norvegicus [26] = experiment: Reduction in circulating lymphocytes in Lewis rat blood at 3 mg/kg, po measured at 4 hrs by hematology analyzer based analysis; format: functional; parameters: scale not given: the % may be the effect or the level left
[27] = Drug metabolism in Lewis rat blood assessed as concentration of parent compound at 3 mg/kg, po measured at 4 hrs by LC-MS/MS analysis; format: ADME, organism-based; conditions: read-out: Ct
Rattus norvegicus [28] = experiment: Reduction in circulating lymphocytes in Lewis rat blood at 3 mg/kg, po measured at 24 hrs by hematology analyzer based analysis; format: functional; parameters: scale not given: the % may be the effect or the level left
[29] = Drug metabolism in Lewis rat blood assessed as concentration of parent compound at 3 mg/kg, po measured at 24 hrs by LC-MS/MS analysis
[30] = Half-life in Lewis rat at 3 mg/kg, po measured over 72 hrs by LC-MS/MS analysis; format: ADME, organism-based; conditions: in vivo
[31] = Ratio of drug metabolism in Lewis rat blood assessed as phosphate ester metabolite to parent drug at 3 mg/kg, po measured at 24 hrs by LC-MS/MS analysis; format: ADME, organism-based; conditions: in vivo
[32] = Terminal half-life in Sprague-Dawley rat at 1 mg/kg, iv; format: ADME, organism-based; conditions: in vivo, read-out: beta t1/2 (converted)
[33] = Terminal half-life in beagle dog at 1 mg/kg, iv; format: ADME, organism-based, Canis lupus familiaris; conditions: in vivo, read-out: beta t1/2 (converted)
[34] = Terminal half-life in cynomolgus monkey at 1 mg/kg, iv; format: ADME, organism-based, Macaca fascicularis; conditions: in vivo, read-out: beta t1/2 (converted)
[35] = AUC ratio in orally dosed Sprague-Dawley rat blood assessed as phosphate metabolite to parent compound; format: ADME, organism-based; conditions: in vivo, po
[36] = AUC ratio in orally dosed Beagle dog blood assessed as phosphate metabolite to parent compound; format: ADME, organism-based, Canis lupus familiaris; conditions: in vivo, po
[37] = AUC ratio in orally dosed cynomolgus monkey blood assessed as phosphate metabolite to parent compound; format: ADME, organism-based, Macaca fascicularis; conditions: in vivo, po
Rattus norvegicus [38] = experiment: Drug metabolism in Lewis rat blood assessed as concentration of phosphate ester metabolite formation at 3 mg/kg, po measured at 4 hrs by LC-MS/MS analysis; conditions: in vivo
[39] = Pulmonary toxicity in Lewis rat assessed as elevation of BAL protein level at 3 mg/kg by advia1800 chemistry analyzer; format: organism-based; conditions: in vivo
Rattus norvegicus [40] = experiment: Reduction in circulating lymphocytes in Lewis rat blood assessed as effective dose after oral dosing measured at 24 hrs by hematology analyzer based analysis; format: functional
[41] = AUC ratio in orally dosed human blood assessed as phosphate metabolite to parent compound; format: ADME, organism-based; conditions: po
Mus musculus [42] = experiment: Immunosuppressive activity in MOG (35 to 55 residues)/pertussis toxin-induced experimental autoimmune encephalomyelitis C57BL/6 mouse model assessed as reduction in formation of inflammatory lesions in CNS at 1 mg/kg, po QD starting from day 1 post immunization and measured thrice weekly until day 24; format: functional, organism-based

Chain of Sphingosine 1-phosphate receptor 3 (Q99500 whole entry): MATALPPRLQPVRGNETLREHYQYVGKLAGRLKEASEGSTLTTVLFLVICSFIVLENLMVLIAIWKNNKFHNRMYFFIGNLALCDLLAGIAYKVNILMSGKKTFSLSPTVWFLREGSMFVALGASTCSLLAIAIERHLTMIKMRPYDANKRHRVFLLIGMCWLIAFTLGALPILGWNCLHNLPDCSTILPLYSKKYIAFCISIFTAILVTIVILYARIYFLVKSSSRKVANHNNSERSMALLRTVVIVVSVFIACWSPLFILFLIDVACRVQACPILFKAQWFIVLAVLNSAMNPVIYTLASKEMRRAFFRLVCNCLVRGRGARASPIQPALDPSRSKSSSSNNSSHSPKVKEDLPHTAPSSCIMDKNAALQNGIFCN

SMILES: O=C(O)C[C@H]1CCCN(C[C@@H](O)c2ccc(-c3noc(-c4onc(-c5ccccc5)c4C(F)(F)F)n3)cc2)C1
Activity [1]: 24.3 mg/dL | Activity [2]: 36% | Activity [3]: 57%

EC50 [4]: > 1000 nM | EC50 [5]: 3.4 nM | IC50 [6]: 0.6 nM | Tmax [7]: 6 h | Tmax [8]: 6 h | Tmax [9]: 6 h
SMILES: COc1ccccc1CC[C@@H]1CCc2cc([C@H]3CC[C@](N)(COP(=O)(O)O)C3)ccc2C1
Activity [2]: 11% | Activity [3]: 27% | Activity (Cerebellar cortex [10]): Active | Activity (Cerebellar cortex [11]): 100%

Ct [16]: Bld | concentration at 4 h [17]: 1000 nM | Drug metabolism [18]: Bld | Drug metabolism [19]: 150 nM | concentration at 24 h [20]: 19 nM | concentration at 24 h [21]: 1200 nM | Drug metabolism [22]: 20 nM | Drug metabolism [23]: 620 nM | Ratio [24]: 1 | Ratio [25]: 0.5 | concentration at 4 h [27]: 130 nM | half-life [30]: > 75 h | Ratio [31]: 1.6 | half-life [32]: 131 h | half-life [33]: 131 h | half-life [34]: 131 h | Ratio AUC [35]: 2.5 | Ratio AUC [36]: 2.4 | Ratio AUC [37]: 0.3 | Drug metabolism (Rattus norvegicus [38]): 90 nM
SMILES: CCCCCC[C@@H]1CCc2cc([C@H]3CC[C@](N)(CO)C3)ccc2C1 [BMS-986104]
Activity (Mus musculus [12]): 17% | Activity (Mus musculus [13]): 88% | Activity (Mus musculus [14]): 73% | Activity (Mus musculus [15]): 90% | Activity (Rattus norvegicus [26]): 48% | Activity (Rattus norvegicus [28]): 82% | Ct [29]: 160 nM

SMILES: CCCCCCCCc1ccc(CCC(N)(CO)CO)cc1 [FINGOLIMOD]
Activity [39]: 12.5 mg/dL | ED50 (Rattus norvegicus [40]): 0.1 mg/kg | Ratio AUC [35]: 5.6 | Ratio AUC [36]: 3.7 | Ratio AUC [37]: 5.9 | Ratio AUC [41]: 0.42 | Activity (Mus musculus [42]): Active
